IC50 and inhibition data for 14 compounds are collected here from publication PMC12133982, “Predominant T-cell epitopes of SARS-CoV-2 restricted by multiple prevalent HLA-B and HLA-C allotypes in Northeast Asia” (Frontiers in Immunology, 2025).

Peptide text beside a SMILES is read from it.

The target of one experiment is HLA-C0602 (Homo sapiens, UniProt P10321, A176E/A330V/C350S/L171W/L180W/L218V/M285V/M309V/M331V/N104K/P208H/Q277E/Q291P/R121W/S101N/S123Y/S297R/T329A/T363A/V319A/V328M). Description: Competitive peptide binding assay, CIR-C0602.
The target in a further experiment is HLA-C0102 (Homo sapiens, UniProt P10321, A176E/A330V/A35S/A97T/C350S/D114A/D33F/L171W/L180R/L218V/M285V/M309V/M331V/P208H/Q277E/Q291P/R121W/R243W/R30K/S123C/S140Y/S297R/T329A/T363A/V272M/V319A). Description: Competitive peptide binding assay, CIR-C0102. The procedure:
(§1) Then, competitive peptide binding assays were performed.

The target of a further experiment is HLA-B1502 (Homo sapiens, UniProt P01889, A329T/A93T/A95T/C349S/D201E/D98Y/E187L/E204Q/E69M/E70A/H137Y/K202T/L119I/Q94N/R155S/R180L/S121R/S35A/S48A/T118I/V306I/V36M/Y140S/Y91S). Description: Competitive peptide binding assay, CIR-B1502. Particulars: HMy2.CIR-B1502 cells, reference Cy5-[…], class from inhibition at 5 and 15 μM, flow cytometry MFI; read-out: Binding affinity with HLA-B1502. The procedure:
as §1

The target of a further experiment is HLA-B3501 (Homo sapiens, UniProt P01889, A329T/A93T/A95T/C349S/D201E/D98Y/E176V/E187L/E204Q/E69T/I218V/K202T/L119I/Q94N/R155S/R180L/S121R/S35A/S48A/T118I/V127L/V306I/V36M/Y140S/Y91F). Description: Competitive peptide binding assay, CIR-B3501. Particulars: HMy2.CIR-B3501 cells, reference Cy5-[…], class from inhibition at 5 and 15 μM, flow cytometry MFI; read-out: Binding affinity with HLA-B3501. The protocol:
as §1
Background: A flow cytometer gives signals particle by particle.

Another experiment concerns the target HLA-B1501 (Homo sapiens, UniProt P01889, A329T/A93T/A95T/C349S/D201E/D98Y/E187L/E204Q/E69M/E70A/K202T/N87E/Q94N/R155S/R180W/S121R/S35A/S48A/V306I/V36M/Y140S/Y91S). The experiment in a line: Competitive peptide binding assay, CIR-B1501. Particulars: HMy2.CIR-B1501 cells, reference Cy5-[…], class from inhibition at 5 and 15 μM, flow cytometry MFI; read-out: Binding affinity with HLA-B1501. The procedure: as §1

A further experiment deals with HLA-B5801 (Homo sapiens, UniProt P01889, A329T/C349S/D201E/D98Y/E176V/E187L/E204Q/E69T/G107R/I218V/I90N/K202T/L105A/L119I/N104I/N87E/Q89R/Q94S/R106L/R155S/R180L/R86G/S101N/S121R/S35A/S48A/T118I/V127L/V306I/V36M/Y140S/Y91M). The experiment in a line: Competitive peptide binding assay, CIR-B5801. Particulars: HMy2.CIR-B5801 cells, reference Cy5-[…], class from inhibition at 5 and 15 μM, flow cytometry MFI; read-out: Binding affinity with HLA-B5801. The procedure:
as §1

A further experiment has as its target HLA-B4601 (Homo sapiens, UniProt P01889, A329T/A93R/C349S/D201E/E100V/E187L/E204Q/E69M/E70A/I90K/K202T/N87E/R155S/R180W/S121R/S35A/S48A/V306I/V36M/Y140S). The experiment in a line: Competitive peptide binding assay, CIR-B4601. Particulars: for IC50: HMy2.CIR-B4601 cells, reference Cy5-[…], class from inhibition at 5 and 15 μM, flow cytometry MFI, read-out: Binding affinity with HLA-B4601; for inhibition at 5 µM: read-out: Inhibition % of Cy5-reference peptide binding, CIR-B4601, 5μM peptide; for inhibition at 15 µM: read-out: Inhibition % of Cy5-reference peptide binding, CIR-B4601, 15μM peptide. The procedure:
as §1

A further experiment concerns the target HLA-B1301 (Homo sapiens, UniProt P01889, A65T/A93T/A95T/D138N/D201E/D98Y/E176V/E204Q/E69M/E70A/G107R/K202T/L105A/L119I/N104T/N87E/Q94N/R106L/R155S/R169L/R180L/S101N/S121R/S35A/S48T/T118I/V127L/V36M/Y140L/Y91S). Description: Competitive peptide binding assay, CIR-B1301. Particulars: HMy2.CIR-B1301 cells, reference Cy5-[…], class from inhibition at 5 and 15 μM, flow cytometry MFI; read-out: Binding affinity with HLA-B1301. The protocol:
as §1

[1] abbreviates: read-out: Inhibition % of Cy5-reference peptide binding.

`CC(C)[C@H](NC(=O)CNC(=O)[C@H](CCC(=O)O)NC(=O)[C@H](CCCNC(=N)N)NC(=O)[C@@H]1CCCN1C(=O)[C@H](Cc1ccccc1)NC(=O)[C@H](Cc1c[nH]cn1)NC(=O)[C@H](C)N)C(=O)N[C@@H](Cc1ccccc1)C(=O)O` [Epitope M157] (H-AHFPREGVF-OH; N-terminus and C-terminus assumed) yielded an IC50 at HLA-C0602 of over 15 µM.

The compound `CC(C)C[C@H](NC(=O)[C@H](C)NC(=O)[C@@H](NC(=O)[C@@H](N)CC(C)C)[C@@H](C)O)C(=O)N[C@@H](CCCNC(=N)N)C(=O)N[C@@H](CC(C)C)C(=O)N[C@@H](CS)C(=O)N[C@@H](C)C(=O)N[C@@H](Cc1ccc(O)cc1)C(=O)O` [Epitope M51] (H-LTALRLCAY-OH; N-terminus and C-terminus assumed) displayed an IC50 on HLA-C0602 of under 5 µM. Also, the IC50 at HLA-C0102 (HMy2.CIR-C0102 cells, reference Cy5-[…], class from inhibition at 5 and 15 μM, flow cytometry MFI, read-out: Binding affinity with HLA-C0102) lay within 5 to 15 µM. Also, on HLA-C0102 (setting [1]), the inhibition at 5 µM came to 42.9% and the inhibition at 15 µM is 77.6%.

On to `CC(C)[C@H](NC(=O)CNC(=O)[C@H](Cc1c[nH]cn1)NC(=O)[C@@H]1CCCN1C(=O)[C@H](C)NC(=O)[C@H](CO)NC(=O)[C@@H](N)CCC(N)=O)C(=O)N[C@H](C(=O)N[C@@H](Cc1ccccc1)C(=O)O)C(C)C` [Epitope Y146] (H-QSAPHGVVF-OH; N-terminus and C-terminus assumed), for which the figures for the IC50 on HLA-B1502, at HLA-B3501 and on HLA-B1501 were 5 to 15 µM, over 15 µM and under 5 µM, respectively.

With `CC[C@H](C)[C@H](NC(=O)CNC(=O)[C@H](CC(=O)O)NC(=O)[C@H](CCCCN)NC(=O)[C@H](CC(N)=O)NC(=O)[C@H](C)NC(=O)CNC(=O)[C@H](Cc1ccc(O)cc1)NC(=O)[C@@H]1CCCN1C(=O)[C@@H](N)CC(C)C)C(=O)O` [Epitope Y273] (H-LPYGANKDGI-OH; N-terminus and C-terminus assumed), the IC50 on HLA-B1502 is 5 to 15 µM; on HLA-B5801, over 15 µM; on HLA-B4601, over 15 µM; on HLA-B1501, over 15 µM. Moreover, on HLA-B4601, the inhibition at 5 µM worked out at 11.6%. In addition, the inhibition at 15 µM on HLA-B4601 amounted to 31%.

As for `CC[C@H](C)[C@H](NC(=O)[C@H](C)NC(=O)[C@@H](N)CC(C)C)C(=O)N[C@@H](CC(C)C)C(=O)N[C@H](C(=O)N[C@@H](C)C(=O)N[C@@H](CC(C)C)C(=O)N[C@@H](CCCNC(=N)N)C(=O)N[C@@H](CC(C)C)C(=O)O)[C@@H](C)O` [Epitope Y7] (H-LAILTALRL-OH; N-terminus and C-terminus assumed), the IC50 at HLA-B3501 was 5 to 15 µM; on HLA-B4601, over 15 µM.

`CC[C@H](C)[C@H](NC(=O)[C@@H](NC(=O)[C@H](CC(C)C)NC(=O)[C@H](CCC(=O)O)NC(=O)[C@H](CO)NC(=O)[C@H](CCC(=O)O)NC(=O)[C@H](CC(C)C)NC(=O)[C@H](CC(C)C)NC(=O)[C@@H]1CCCN1C(=O)[C@@H](N)CCCNC(=N)N)C(C)C)C(=O)O` [Epitope Y43] (H-RPLLESELVI-OH; N-terminus and C-terminus assumed): the IC50 at HLA-B1301 lay in the range of 5 to 15 µM.

On to `CC(C)C[C@H](NC(=O)[C@@H](N)CCC(N)=O)C(=O)N[C@H](C(=O)N1CCC[C@H]1C(=O)N[C@H](C(=O)N[C@@H](Cc1c[nH]c2ccccc12)C(=O)N[C@@H](CCCNC(=N)N)C(=O)N[C@H](C(=O)N[C@@H](Cc1ccc(O)cc1)C(=O)O)C(C)C)[C@@H](C)O)[C@@H](C)O` [Epitope Y175] (H-QLTPTWRVY-OH; N-terminus and C-terminus assumed), for which the IC50 at HLA-B1502 was 5 to 15 µM; on HLA-B3501, over 15 µM; at HLA-B5801, under 5 µM; on HLA-B1301, over 15 µM; at HLA-B1501, over 15 µM.

Regarding `CC(C)C[C@H](NC(=O)[C@H](CC(C)C)NC(=O)[C@H](CC(C)C)NC(=O)[C@H](C)NC(=O)[C@H](CC(C)C)NC(=O)[C@H](C)NC(=O)[C@H](C)NC(=O)[C@H](CC(=O)O)NC(=O)CN)C(=O)O` [Epitope Y65] (H-GDAALALLL-OH; N-terminus and C-terminus assumed), the IC50 was over 15 µM at HLA-B3501, 5 to 15 µM at HLA-B5801, under 5 µM at HLA-B1301 and 5 to 15 µM on HLA-B1501.

Take `CC[C@H](C)[C@H](NC(=O)[C@H](CCC(N)=O)NC(=O)[C@@H](N)CC(C)C)C(=O)N1CCC[C@H]1C(=O)N[C@@H](Cc1ccccc1)C(=O)N[C@@H](C)C(=O)N[C@@H](CCSC)C(=O)N[C@@H](CCC(N)=O)C(=O)N[C@@H](CCSC)C(=O)O` [Epitope Y81] (H-LQIPFAMQM-OH; N-terminus and C-terminus assumed): the IC50 was over 15 µM at HLA-B4601, under 5 µM at HLA-B1301 and over 15 µM on HLA-B1501. For the same compound, at HLA-B4601, the inhibition at 5 µM turned out to be 9.21%. Besides, the inhibition at 15 µM on HLA-B4601 came out at 44%.

For the compound `CC(C)C[C@H](NC(=O)[C@@H](NC(=O)[C@H](CCCNC(=N)N)NC(=O)[C@H](CO)NC(=O)[C@@H](NC(=O)[C@H](C)NC(=O)[C@@H](N)C(C)C)[C@@H](C)O)[C@@H](C)O)C(=O)N[C@@H](CO)C(=O)N[C@@H](Cc1ccc(O)cc1)C(=O)O` [Epitope Y158] (H-VATSRTLSY-OH; N-terminus and C-terminus assumed), the IC50 on HLA-B1502 was 5 to 15 µM; on HLA-B3501, 5 to 15 µM; at HLA-B5801 it was over 15 µM; on HLA-B1501, under 5 µM.

Turning to `CC[C@H](C)[C@H](N)C(=O)N[C@@H](C)C(=O)N[C@@H](CC(N)=O)C(=O)N[C@@H](CCC(N)=O)C(=O)N[C@@H](Cc1ccccc1)C(=O)N[C@@H](CC(N)=O)C(=O)N[C@@H](CO)C(=O)N[C@@H](C)C(=O)N[C@H](C(=O)O)[C@@H](C)CC` [Epitope Y283] (H-IANQFNSAI-OH; N-terminus and C-terminus assumed), the IC50 was over 15 µM on HLA-B1502, over 15 µM at HLA-B1301 and 5 to 15 µM at HLA-B1501.

For `CC[C@H](C)[C@H](N)C(=O)N[C@H](C(=O)N[C@@H](CC(=O)O)C(=O)N[C@@H](C)C(=O)N[C@H](C(=O)N[C@@H](CC(=O)O)C(=O)N[C@@H](CS)C(=O)N[C@@H](C)C(=O)N[C@@H](CC(C)C)C(=O)O)C(C)C)[C@@H](C)O` [Epitope M161, ITDAVDCAL] (H-ITDAVDCAL-OH; N-terminus and C-terminus assumed), the IC50 on HLA-C0602 is over 15 µM.

For the compound `CC(C)[C@H](NC(=O)[C@H](Cc1ccc(O)cc1)NC(=O)[C@H](CCC(=O)O)NC(=O)[C@H](Cc1ccccc1)NC(=O)[C@@H](N)[C@@H](C)O)C(=O)N[C@@H](CO)C(=O)N[C@@H](CCC(N)=O)C(=O)N1CCC[C@H]1C(=O)N[C@@H](Cc1ccccc1)C(=O)O` [Epitope M180] (H-TFEYVSQPF-OH; N-terminus and C-terminus assumed), on HLA-C0602, the IC50 was over 15 µM.

`CC(C)C[C@H](NC(=O)[C@@H](NC(=O)[C@@H]1CCCN1C(=O)[C@H](CC(N)=O)NC(=O)[C@H](CC(=O)O)NC(=O)[C@H](Cc1ccccc1)NC(=O)[C@H](CCCNC(=N)N)NC(=O)[C@@H](N)CCCCN)C(C)C)C(=O)N1CCC[C@H]1C(=O)N[C@@H](Cc1ccccc1)C(=O)O` [Epitope M125] (H-KRFDNPVLPF-OH; N-terminus and C-terminus assumed) gave an IC50 on HLA-C0602 of 5 to 15 µM.

One may read the inhibition as the drop in the measured response relative to a control, in per cent.
